Data set [1] has as its system SIINFEKL-H2Kb complex. Kind of data set: Presentation of […]-H2Kb complex on HepB5 cells. The class given is cell-based, mouse. Particulars: for SIINFEKL-H2Kb presentation compared with controls: IFNγ-pretreated HepB5 cells, 1 hr.
Data set [2] deals with proteasome. The experiment in a line: Hydrolysis of […]-TE by cytosolic fractions of HepB5 cells. The class given is biochemical, mouse.
Data set [3] relates to proteasome. Kind of data set: Proteasome chymotrypsin-like. In kind it is cell-based, mouse. Particulars: HepB5 cells, 48 hr.
Data set [4] deals with proteasome. The experiment in a line: Proteasome activity in primary hepatocytes.
In data set [5] the test system is SIINFEKL-H2Kb complex. Kind of data set: Presentation of SIINFEKL-H2Kb complex on primary hepatocytes.
A further data set deals with H2Kb. Kind of data set: H2Kb expression on HepB5 cells. In kind it is cell-based, mouse. Particulars: HepB5 cells after 24-hr IFNγ exposure; flow cytometric analysis. (In flow cytometry, cells or beads pass a laser one at a time.)
Another data set concerns HepB5 cells. The experiment in a line: Acetaldehyde level in medium by head space gas chromatography. In kind it is cell-based, mouse. Particulars: HepB5 cells incubated with ethanol and DAS, 20 μM; culture medium.
A further data set deals with LMP2. Particulars: HepB5 cells, IFNγ 10 ng/ml and ethanol 50 mM, 48 hr; normalized to β-actin.
The target in another data set is ADH (Mus musculus, UniProt P00329). Particulars: HepB5 cells exposed to ethanol for 48 hr; total cell lysates.
Sequence of ADH (P00329 whole entry): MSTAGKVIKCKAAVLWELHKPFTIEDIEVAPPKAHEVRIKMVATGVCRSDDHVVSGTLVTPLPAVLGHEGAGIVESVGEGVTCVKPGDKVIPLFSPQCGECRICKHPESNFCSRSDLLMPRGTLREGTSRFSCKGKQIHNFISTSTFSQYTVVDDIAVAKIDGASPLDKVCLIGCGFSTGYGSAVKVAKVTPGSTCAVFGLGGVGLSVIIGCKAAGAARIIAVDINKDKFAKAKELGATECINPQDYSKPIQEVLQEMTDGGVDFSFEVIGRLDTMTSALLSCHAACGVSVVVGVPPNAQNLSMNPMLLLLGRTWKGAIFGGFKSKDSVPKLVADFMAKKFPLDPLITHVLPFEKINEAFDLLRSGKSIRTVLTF
A further data set deals with PA28. Particulars: HepB5 cells, IFNγ 10 ng/ml and ethanol 50 mM, 48 hr; normalized to β-actin.
The subject of data set [6] is STAT1. Particulars: HepB5 cells, ethanol treatment then IFNγ; data not shown.
The test system of data set [7] is STAT1. Particulars: HepB5 cells, ethanol 48 hr then IFNγ 1 hr; nuclear extracts; 3 experiments.
The mark [8] stands for this setting: 50 mM ethanol 18 hr, without IFNγ.

The record followed here is paper PMC2670776 (Hepatology (Baltimore, Md.), 2009).

Where a SMILES comes first, the peptide text is derived from it. The star is where a group is joined. Cbz = O=C(OCc1ccccc1)*

For the molecule `C[C@H]1CCC/C=C/[C@@H]2C[C@H](O)C[C@H]2[C@H](O)/C=C/C(=O)O1` [brefeldin A], in the data set on SIINFEKL-H2Kb complex [1] (brefeldin A 5 μg/ml), the “SIINFEKL-H2Kb presentation compared with controls” value was “suppressed”.
With `Cc1cn[nH]c1` [4MP, 4-methylpyrazole, reference compound], the “Inhibitory effect of ethanol on peptide cleavage after ethanol and 4MP” value with proteasome [2] (cytosols of HepB5 cells incubated with 50 mM ethanol and 4MP 2 mM) is given as “partially reversed”. For the same molecule, the “Suppressive effects of ethanol on SIINFEKL-H2Kb presentation” value in the data set with SIINFEKL-H2Kb complex [1] (IFNγ-treated HepB5 cells, 50 mM ethanol with 4 MP in culture medium) is listed as “blocked”. The “Cht-L proteasome activity, cells incubated with ethanol and 4MP” value in the data set with proteasome [3] (50 mM ethanol + 4MP 2 mM) was “unaffected”. For the same molecule, the “Ethanol-elicited reduction in proteasome activity” value in the data set with proteasome [4] (50 mM ethanol + 4MP 2 mM) is reported as “partially prevented”. The “Ethanol-elicited reduction in SIINFEKL-H2Kb presentation” value in the data set on SIINFEKL-H2Kb complex [5] (50 mM ethanol + 4MP 2 mM) is given as “partially prevented”.
In the case of catalase, the SIINFEKL-H2Kb presentation restored entry with SIINFEKL-H2Kb complex [1] (IFNγ-treated HepB5 cells, co-treatment with ethanol and catalase) is “up to 80%”.
“IFNγ: recombinant interferon gamma, used at 10 ng/ml”: the “Effect on proteasome activity” value in the data set on proteasome [3] (IFNγ 10 ng/ml) was “induced proteasome activity”. Further, in the data set with H2Kb, the H2Kb positive cells entry is on record as “about 90%”.
For `CC(C)C[C@@H](C=O)NC(=O)[C@H](CC(C)C)NC(=O)[C@H](CC(C)C)NC(=O)OCc1ccccc1` [MG132] (Cbz-Leu-Leu-Leu-aldehyde), the SIINFEKL-TE hydrolysis result in the data set on proteasome [2] (cytosols of HepB5 cells with MG132) is recorded as “completely blocked”. Moreover, the “SIINFEKL-H2Kb presentation compared with controls” value in the data set on SIINFEKL-H2Kb complex [1] (MG132 20 μM) is on record as “suppressed”.
On to `C=CCSCC=C` [DAS, diallyl sulfide], for which the “Ach (acetaldehyde) levels” value with HepB5 cells was “suppressed”.
With `COC1=C2C[C@@H](C)C[C@H](OC)[C@H](O)[C@@H](C)/C=C(\C)[C@H](OC(N)=O)[C@@H](OC)/C=C\C=C(/C)C(=O)NC(=CC1=O)C2=O` [geldanamycin], the “SIINFEKL-H2Kb presentation compared with controls” value with SIINFEKL-H2Kb complex [1] (geldanamycin 5 μM) is “suppressed”.
With `CCO` [ethanol], the “Peptide hydrolysis in IFNγ-treated cells” value in the data set with proteasome [2] (cytosols of IFNγ-treated HepB5 cells exposed to 50 mM ethanol) is reported as “suppressed”. The “Induction of immunoproteasome subunit LMP2 by IFNγ” value in the data set on LMP2 is “prevented the induction”. At ADH, the ADH activity result is “unchanged”. In addition, the “Effect on IFNγ induction of proteasome activity” value with proteasome [3] (50 mM ethanol + IFNγ 10 ng/ml) is listed as “blocked this induction”. Also, in the data set with proteasome [3] (ethanol 50 mM, 3 experiments), the “Cht-L proteasome activity reduced by” value was found to be 40%. In addition, in the data set with proteasome [4] (setting [8]), the Proteasome activity entry is on record as “decreased”. In the data set with proteasome [4] (IFNγ 10 ng/ml, 50 mM ethanol), the “Proteasome function in IFNγ-pretreated hepatocytes” value is “down-regulated”. The “Induction of 20S proteasome activator PA28 expression by IFNγ” value in the data set on PA28 is listed as “prevented the induction”. The STAT1 phosphorylation entry with STAT1 [6] is on record as “no changes”. Further, the “Presentation of SIINFEKL-H2Kb complexes” value with SIINFEKL-H2Kb complex [5] (setting [8]) is “decreased”. Also, in the data set with SIINFEKL-H2Kb complex [5] (IFNγ 10 ng/ml, 50 mM ethanol), the “Antigen presentation in IFNγ-pretreated hepatocytes” value was “down-regulated”. For the same molecule, the “STAT1 attachment to DNA” value with STAT1 [7] was “suppressed”.
